Structures can show the parent of a compound that is named as a salt. Where two headings read alike, the source gives them in different places.
How the values were obtained:
[1] = tested on: PLA2 activity of D. russelii venom; assay: Miniaturised 384-well colorimetric sPLA2 assay, D. russelii venom; type: biochemical, Daboia russelii; details: for mean inhibition between screen and rescreen / Percent inhibition (PLA2) Rescreen: 10 µM; for mean inhibition between screen and rescreen: D. russelii venom; for EC50: 2-fold dilutions 10 µM to 5 pM, n = 4; for Percentage of Inhibition: Table S1, strong hits, value used for ligand efficiency metrics; for venom PLA2 activity in presence of compound: interleaved validation plates, 10 µM compound; for venom PLA2 activity in presence of compound / Percent inhibition (PLA2) Original / Percent inhibition (PLA2) Rescreen: 20 ng/well D. russelii venom; for Percent inhibition (PLA2) Original: primary screen, 10 µM drug, single point, relative to varespladib (100%) and DMSO (0%); for Percent inhibition (PLA2) Rescreen: rescreen of library hits, average of rescreen (2 ≤ n ≤ 4)
Description: Once hydrolysed, this substrate yields a free thiol group that interacts with 5,5′-dithio-bis-(2-nitrobenzoic acid) (DTNB), which is then converted into 2-nitro-5-thiobenzoic acid, causing a change in colour which is measurable at 405 nm. This conversion is measured kinetically and occurs at a linear rate until the substrate is exhausted, at which point the absorbance plateaus. Appropriate PLA2 concentrations are determined to fit within the linear range of the assay and a bee venom positive control is included with the kit. The assay is designed for 96-well plates and is quite costly at GBP£440/96 tests at the time of writing. We wanted to adapt and miniaturise this methodology for high-throughput screening of PLA2 activity and inhibition in 384-well plates to decrease cost and increase output, without compromising assay robustness.
Prior to conducting drug library screens, it was important to assess whether any drift or edge effects occurred in our setup. […] These consisted of full rows of these compounds in a repeating pattern (e.g., DMSO was in rows A, E, I, M, buffer was in rows B, F, J, N, etc.) on a 384-well plate. The assay was conducted as previously described using 20 ng/well of D. russelii venom across the plate. This was repeated three times on different days. To determine PLA2 activity under each of these conditions, the slope of each reaction was calculated by dividing the difference in absorbance at 405 nm between the first two time points in the linear range (tn–t0) by time (in min) where tn was 2 min 41 s in this case. These values were then inputted into the following equation: A µmol/min×mL=slope×0.045/4.6×0.01 where A represents venom activity, 0.045 is a factor representing the total volume of the assay (45 µL), 4.6 is the extinction coefficient of DTNB in 384-well plates, and 0.01 represents the sample size of 10 µL. This activity is then converted into specific activity by dividing the overall activity to the amount of venom in the reaction in micrograms.
Once in house this library was formatted as 11 × 384-well stock plates containing drugs at a concentration of 1 mM in DMSO. […] Assay-ready plates (ARPs) were made by transferring 0.5 µL from each well of the stock plates onto new 384-well plates, so that the layout of the ARP matched that of the stock plate. Venom was added at 10 µL per well (20 ng venom/well) across the plate, except for column 24 which received 10 µL of assay buffer. These latter wells containing control drugs and assay buffer served as the blank. The plates were incubated for 25 min at 37°C, then left to reach room temperature for 5 min. […] The data were analysed as above by calculating the slopes of all reactions on the plate. The average of the slopes of the blanks was then subtracted from each of these values, and specific activity calculated as described and expressed as µmol/min/mL/µg of venom.
These experiments were conducted and analysed as above, with n = 4 repeats per compound.

[2] = tested on: PLA2 activity of N. nigricollis venom; assay: Miniaturised 384-well colorimetric sPLA2 assay, N. nigricollis venom; details: for % inhibition: N. nigricollis: re-sourced drugs, 10 µM, 5 ng venom, varespladib normalised as 100%
Description: (§1) The final concentrations of DTNB and that of the substrate in the assay were 0.44 and 0.88 mM, respectively.
(§2) Then, 10 µL of snake venom at a concentration appropriate for the venom being screened was added to the plates using the VIAFLO384 and the plates were sealed with adhesive plate seals (Greiner BioOne), spun down and incubated for 25 min at 37°C. To prevent the degradation of any potential photolabile compounds, the plates were wrapped in aluminium foil prior to the incubation step. The plates were then taken out of the incubator and left to acclimatise at room temperature for 5 min.
(§3) To determine percentage inhibition relative to the positive and negative controls we applied the following formula: % inhibition= A− µ pos/µ neg− µ pos×100 where A represents specific activity as determined for each sample, and µ (pos) and µ (neg) represent the means of the specific activity in the positive and negative controls, respectively.
(§4) Drugs were plated as before, starting at 10 µM followed by 2-fold dilutions down to 5 pM, with each dilution series plated in quadruplicate. The data were analysed and expressed as described above and the percentage PLA2 inhibition values were used to generate EC50s in Graphpad Prism 9 using a nonlinear regression to fit the dose-response inhibition curve.

[3] = set-up: method as in Cerdá et al., 2003; details: ref Cerdá et al., 2003; cited from earlier work
[4] = tested on: PLA2 activity of D. russelii venom; assay: Miniaturised 384-well colorimetric sPLA2 assay, D. russelii venom; type: biochemical, Daboia russelii; details: re-sourced drugs, 10 µM, 30 ng venom, varespladib normalised as 100%
[5] = tested on: PLA2 activity of C. durissus terrificus venom; assay: Miniaturised 384-well colorimetric sPLA2 assay, C. durissus terrificus venom; details: for EC50: read-out: EC50 (nM) C. durissus terrificus, 2-fold dilutions 10 µM to 5 pM, n = 4; for % inhibition: C. durissus terrificus: re-sourced drugs, 10 µM, 12.5 ng venom, varespladib normalised as 100%
Description: as §1, §2, §3, §4

[6] = tested on: PLA2 activity of B. arietans venom; assay: Miniaturised 384-well colorimetric sPLA2 assay, B. arietans venom; details: re-sourced drugs, 10 µM, 40 ng venom, varespladib normalised as 100%
Description: as §1, §2, §3

[7] = tested on: PLA2 activity of N. naja venom; assay: Miniaturised 384-well colorimetric sPLA2 assay, N. naja venom; details: re-sourced drugs, 10 µM, 40 ng venom, varespladib normalised as 100%
Description: as §1, §2, §3

[8] = tested on: PLA2 activity of C. atrox venom; assay: Miniaturised 384-well colorimetric sPLA2 assay, C. atrox venom; details: re-sourced drugs, 10 µM, 30 ng venom, varespladib normalised as 100%
Description: as §1, §2, §3

[9] = tested on: non-small cell lung carcinoma cells; set-up: method as in Wang et al., 2018; details: ref Wang et al., 2018; cited from earlier work
secreted PLA2 = tested on: secreted PLA2; set-up: method as in Yu et al., 1997; details: ref Yu et al., 1997; cited from earlier work
[10] = set-up: method as in Beaudoin, 1985; details: ref Beaudoin, 1985; cited from earlier work
[11] = set-up: method as in Liu et al., 1987; Coutinho et al., 2000; details: dose of up to 20 mg/day, trialled in the 1970s in China; ref Liu et al., 1987; Coutinho et al., 2000; cited from earlier work
[12] = tested on: PLA2 activity of C. durissus terrificus venom; set-up: method as in Cotrim et al., 2011; details: ref Cotrim et al., 2011; cited from earlier work
[13] = read-out: EC50 (nM) D. russelii

Molecule: CC(=O)O.Cc1cc2c(C(C)C)c(O)c(O)c(C=O)c2c(O)c1-c1c(C)cc2c(C(C)C)c(O)c(O)c(C=O)c2c1O
- mean inhibition between screen and rescreen [1]: 89.2%

Molecule: O=C1O[C@H]2[C@@H]3OC(=O)c4cc(O)c(O)c(O)c4-c4c(O)c(O)c5oc(=O)c6c(c(O)c(O)c7oc(=O)c4c5c76)-c4c(cc(O)c(O)c4O)C(=O)OC[C@H]3OC(O)[C@@H]2OC(=O)c2cc(O)c(O)c(O)c2-c2c1cc(O)c(O)c2O (mixture of isomers) [Punicalagin, punicalagin]
- mean inhibition between screen and rescreen [1]: 71.7%
- EC50 [1, 13]: 559 nM
- Percentage of Inhibition [1]: 83.82
- EC50 ([2]; read-out: EC50 (nM) N. nigricollis, 2-fold dilutions 10 µM to 5 pM, n = 4): 270 nM
- toxicity at high doses in rodents [3]: non-toxic
- % inhibition: D. russelii [4]: above 72%
- EC50 [5]: 167 nM

Molecule: CC1(C)C2CCC1(C)C(O)C2 (racemic) [DL-Borneol]
- mean inhibition between screen and rescreen [1]: 95.1%
- % inhibition: N. nigricollis [2]: did not re-test as a hit
- % inhibition: B. arietans [6]: did not re-test as a hit
- % inhibition: N naja [7]: did not re-test as a hit
- % inhibition: D. russelii [4]: did not re-test as a hit
- % inhibition: C. durissus terrificus [5]: did not re-test as a hit
- % inhibition: C. atrox [8]: did not re-test as a hit

Molecule: Cc1cc2c(C(C)C)c(O)c(O)c(C=O)c2c(O)c1-c1c(C)cc2c(C(C)C)c(O)c(O)c(C=O)c2c1O [Gossypol]
- mean inhibition between screen and rescreen [1]: 76.6%
- EC50 [1, 13]: 94.1 nM
- % inhibition: N. nigricollis [2]: 64%
- proliferation in non-small cell lung carcinoma cells [9]: inhibited proliferation
- inhibition of secreted PLA2 activity (secreted PLA2): reported inhibition of secreted PLA2 activity
- % inhibition: N naja [7]: 30%
- teratogenicity [10]: non-teratogenic
- efficacy and tolerability as male contraceptive [11]: efficacious and well tolerated
- EC50 [5]: 69.1 nM

Molecule: CNC(=O)[C@@H](NC(=O)[C@H](CC(C)C)[C@H](O)C(=O)NO)C(C)(C)C [Marimastat, marimastat]
- venom PLA2 activity in presence of compound [1]: 6–8 μmol/min/mL/µg venom

Molecule: CC(=O)Oc1cc2c(s1)CCN(C(C(=O)C1CC1)c1ccccc1F)C2 (stereo not drawn) [Prasugrel (hydrochloride), prasugrel hydrochloride]
- mean inhibition between screen and rescreen [1]: 83.9%
- Percentage of Inhibition [1]: 89.92
- % inhibition: D. russelii [4]: above 72%

Molecule: O=c1c(O)c(-c2ccc(O)c(O)c2)oc2cc(O)cc(O)c12 [Quercetin (dihydrate), quercetin dihydrate]
- Percent inhibition (PLA2) Original [1]: > 70%
- Percent inhibition (PLA2) Rescreen [1]: failed to inhibit
- % inhibition: N. nigricollis [2]: < 15%
- % inhibition: B. arietans [6]: < 15%
- % inhibition: N naja [7]: < 15%
- % inhibition: D. russelii [4]: 42%
- inhibition of enzymatic PLA2s from C. durissus terrificus venom [12]: previously shown to inhibit
- % inhibition: C. durissus terrificus [5]: ~65%
- % inhibition: C. atrox [8]: < 15%

Molecule: O=C(/C=C/c1ccc(O)c(O)c1/C=C/c1ccc(O)c(O)c1)O[C@H](Cc1ccc(O)c(O)c1)C(=O)O [Salvianolic acid A]
- Percent inhibition (PLA2) Rescreen [1]: failed to reproducibly inhibit

Molecule: CCc1c(C(=O)C(N)=O)c2c(OCC(=O)O)cccc2n1Cc1ccccc1 [Varespladib]
- inhibition of venom PLA2 activity (reaction rate) ([1]; 10 µM varespladib, viper venom, Figure 1B): inhibited venom activity to baseline readings
- EC50 ([1]; text value in pM, read-out: EC50 against D. russelii venom): 0.5 nM
- venom PLA2 activity in presence of compound [1]: dropped sharply
- Percent inhibition (PLA2) Original [1]: > 99%
- inhibition of venom PLA2 activity (reaction rate) ([2]; 10 µM varespladib, elapid venom, Figure 1B): inhibited venom activity to baseline readings
- % inhibition: N. nigricollis [2]: reducing readings to control levels
- % inhibition: B. arietans [6]: reducing readings to control levels
- % inhibition: N naja [7]: reducing readings to control levels
- % inhibition: D. russelii [4]: reducing readings to control levels
- % inhibition: C. durissus terrificus [5]: reducing readings to control levels
- EC50 [5]: 5.5 nM
- % inhibition: C. atrox [8]: reducing readings to control levels

Molecule: Tannic acid
- mean inhibition between screen and rescreen [1]: 92.1%
